Measurements from publication PMC10794144, “A novel antibiotic class targeting the lipopolysaccharide transporter” (Nature, 2024).

System: A. baumannii
Test: microbe, parasite or virus in culture
Conditions: for RO7223280 MIC 80%: read at 80%; for RO7223280 MIC 100%: read at 100%
Outline: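 MIC was taken as the lowest concentration without visible growth, or past which OD600 no longer fell. Testing followed CLSI M07 and M100 broth microdilution, using 0.5 McFarland-derived inocula in CAMHB (LB for A. baylyi isolates).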

[1] = A. baumannii ATCC 17978, Study LGC308175
[2] = A. baumannii ATCC 19606, Study LGC296813
[3] = A. baumannii ATCC 19606, Study LGC299544
[4] = A. baumannii ATCC 19606, Study LGC308175
[5] = A. baumannii ROB08701, Study LGC296813
[6] = A. baumannii ROB08701, Study LGC299544
[7] = A. baumannii ROB08701, Study LGC308175
[8] = A. baumannii ROB08702, Study LGC296813
[9] = A. baumannii ROB08702, Study LGC299544
[10] = A. baumannii ROB08702, Study LGC308175
[11] = A. baumannii ROB08703, Study LGC296813
[12] = A. baumannii ROB08703, Study LGC299544
[13] = A. baumannii ROB08703, Study LGC308175
[14] = A. baumannii ROB08704, Study LGC296813
[15] = A. baumannii ROB08704, Study LGC299544
[16] = A. baumannii ROB08704, Study LGC308175
[17] = A. baumannii ROB08705, Study LGC296813
[18] = A. baumannii ROB08705, Study LGC299544
[19] = A. baumannii ROB08705, Study LGC308175
[20] = A. baumannii ROB08706, Study LGC296813
[21] = A. baumannii ROB08706, Study LGC299544
[22] = A. baumannii ROB08706, Study LGC308175
[23] = A. baumannii ROB08707, Study LGC296813
[24] = A. baumannii ROB08707, Study LGC299544
[25] = A. baumannii ROB08707, Study LGC308175
[26] = A. baumannii ROB08708, Study LGC296813
[27] = A. baumannii ROB08708, Study LGC299544

In the case of `CN1C(=O)[C@H](CCCCN)NC(=O)[C@H](CCCN)NCc2cccnc2Sc2cccc(-c3ccc(C(=O)O)cc3)c2CNC(=O)[C@@H]1Cc1c[nH]c2ccccc12` [zosurabalpin], the MIC range (10 MDR isolates, CAMHB, MCPs read at 80% growth inhibition) is reported as 0.12 to 1 mg/L, the “RO7223280 MIC 80%” value [1] is reported as at most 0.06 mg/L and the “RO7223280 MIC 100%” value [1] is reported as 0.12 mg/L. The “RO7223280 MIC 80%” value [2] was 0.25 mg/L, the “RO7223280 MIC 100%” value [2] was 0.25 mg/L and the “RO7223280 MIC 80%” value [3] was 0.25 mg/L. For the same compound, the “RO7223280 MIC 100%” value [3] was 0.25 mg/L, the “RO7223280 MIC 80%” value [4] was 0.25 mg/L and the “RO7223280 MIC 100%” value [4] was 0.25 mg/L. The “RO7223280 MIC 80%” value [5] was 0.25 mg/L, the “RO7223280 MIC 100%” value [5] was 0.25 mg/L and the “RO7223280 MIC 80%” value [6] was 0.12 mg/L. For the same compound, the “RO7223280 MIC 100%” value [6] was 0.5 mg/L, the “RO7223280 MIC 80%” value [7] was 0.25 mg/L and the “RO7223280 MIC 100%” value [7] was 0.25 mg/L. The “RO7223280 MIC 80%” value [8] was 0.25 mg/L, the “RO7223280 MIC 100%” value [8] was 0.25 mg/L and the “RO7223280 MIC 80%” value [9] was 0.25 mg/L. The “RO7223280 MIC 100%” value [9] was over 64 mg/L, the “RO7223280 MIC 80%” value [10] was 0.25 mg/L and the “RO7223280 MIC 100%” value [10] was over 64 mg/L. For the same compound, the “RO7223280 MIC 80%” value [11] was 0.25 mg/L, the “RO7223280 MIC 100%” value [11] was 0.5 mg/L and the “RO7223280 MIC 80%” value [12] was 0.25 mg/L. For the same compound, the “RO7223280 MIC 100%” value [12] was 0.5 mg/L, the “RO7223280 MIC 80%” value [13] was 0.5 mg/L and the “RO7223280 MIC 100%” value [13] was 0.5 mg/L. For the same compound, the “RO7223280 MIC 80%” value [14] was 0.25 mg/L, the “RO7223280 MIC 100%” value [14] was 0.5 mg/L and the “RO7223280 MIC 80%” value [15] was 0.25 mg/L. For the same compound, the “RO7223280 MIC 100%” value [15] was 1 mg/L, the “RO7223280 MIC 80%” value [16] was 0.5 mg/L and the “RO7223280 MIC 100%” value [16] was 0.5 mg/L. For the same compound, the “RO7223280 MIC 80%” value [17] was 0.25 mg/L, the “RO7223280 MIC 100%” value [17] was 0.25 mg/L and the “RO7223280 MIC 80%” value [18] was 0.12 mg/L. For the same compound, the “RO7223280 MIC 100%” value [18] was 0.12 mg/L, the “RO7223280 MIC 80%” value [19] was at most 0.06 mg/L and the “RO7223280 MIC 100%” value [19] was 0.12 mg/L. The “RO7223280 MIC 80%” value [20] was 1 mg/L, the “RO7223280 MIC 100%” value [20] was 1 mg/L and the “RO7223280 MIC 80%” value [21] was 1 mg/L. For the same compound, the “RO7223280 MIC 100%” value [21] was over 64 mg/L, the “RO7223280 MIC 80%” value [22] was 2 mg/L and the “RO7223280 MIC 100%” value [22] was over 64 mg/L. The “RO7223280 MIC 80%” value [23] was 0.25 mg/L, the “RO7223280 MIC 100%” value [23] was 0.25 mg/L and the “RO7223280 MIC 80%” value [24] was 0.12 mg/L. The “RO7223280 MIC 100%” value [24] was 0.12 mg/L, the “RO7223280 MIC 80%” value [25] was 0.12 mg/L and the “RO7223280 MIC 100%” value [25] was 0.12 mg/L. The “RO7223280 MIC 80%” value [26] was 0.25 mg/L, the “RO7223280 MIC 100%” value [26] was 0.25 mg/L and the “RO7223280 MIC 80%” value [27] was 0.12 mg/L. The “RO7223280 MIC 100%” value [27] was over 64 mg/L.
